Data from patent US20140315889A1, “HYDROXAMATE DERIVATIVES FOR HDAC INHIBITOR, AND THE PHARMACEUTICAL COMPOSITION COMPRISING THEREOF” (CHONG KUN DANG PHARMACEUTICAL CORP., priority 2011, published 2014).
Read-outs that look alike come from different tables or passages of the source.

Legend:
[1] = target: T1, Human recombinant HDAC1 (Homo sapiens, UniProt Q13547); assay: HDAC enzyme activity test, HDAC1; assay type: biochemical
T1 construct: purchased Enzo Life Science Co. (named for the kit; assigned to the enzyme from the BML- catalogue prefix) BML-SE456
T1 sequence (Q13547 whole entry): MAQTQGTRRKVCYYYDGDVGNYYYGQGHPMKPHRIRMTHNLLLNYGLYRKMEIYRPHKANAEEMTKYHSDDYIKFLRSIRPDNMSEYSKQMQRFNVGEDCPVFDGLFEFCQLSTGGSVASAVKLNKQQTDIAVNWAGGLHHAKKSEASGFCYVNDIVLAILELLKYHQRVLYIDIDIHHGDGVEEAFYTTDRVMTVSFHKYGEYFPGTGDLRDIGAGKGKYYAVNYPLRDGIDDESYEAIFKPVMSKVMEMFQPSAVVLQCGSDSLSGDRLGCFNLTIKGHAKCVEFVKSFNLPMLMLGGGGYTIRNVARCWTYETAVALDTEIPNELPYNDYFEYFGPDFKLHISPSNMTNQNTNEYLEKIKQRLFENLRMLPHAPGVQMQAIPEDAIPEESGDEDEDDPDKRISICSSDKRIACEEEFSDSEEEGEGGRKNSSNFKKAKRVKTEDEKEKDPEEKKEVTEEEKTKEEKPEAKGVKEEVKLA
Experimental: (§1) Then, 0.3 μg of enzyme and 10 μM of substrate per well were added, reacted at 30° C. for 60 minutes. Thereto, Fluor de Lys® Developer II (BML-KI176) was added and reacted for 30 minutes. […] From the data, the respective IC50 were calculated by GraphPad Prism 4.0 program.

[2] = target: HDAC2 (Homo sapiens, UniProt Q92769); assay: HDAC enzyme activity test, HDAC2; assay type: biochemical; settings: Table 11, eleven HDAC isozymes; read-out: Inhibition ability (IC50) against HDAC2
Chain of HDAC2 (Q92769 whole entry, species assumed): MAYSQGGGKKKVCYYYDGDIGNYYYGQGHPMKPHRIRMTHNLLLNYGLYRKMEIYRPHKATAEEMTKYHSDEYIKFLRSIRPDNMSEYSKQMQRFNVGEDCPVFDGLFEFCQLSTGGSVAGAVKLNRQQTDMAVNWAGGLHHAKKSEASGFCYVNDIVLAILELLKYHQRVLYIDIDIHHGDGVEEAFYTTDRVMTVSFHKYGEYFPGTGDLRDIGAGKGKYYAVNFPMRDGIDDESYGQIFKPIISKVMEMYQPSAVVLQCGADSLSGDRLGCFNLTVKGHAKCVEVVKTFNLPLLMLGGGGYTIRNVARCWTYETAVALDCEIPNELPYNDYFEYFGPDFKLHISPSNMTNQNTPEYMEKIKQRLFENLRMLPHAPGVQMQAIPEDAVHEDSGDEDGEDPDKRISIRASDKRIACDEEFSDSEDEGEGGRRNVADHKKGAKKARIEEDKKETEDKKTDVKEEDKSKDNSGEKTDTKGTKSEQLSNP
Experimental: as §1

[3] = target: HDAC5 (Homo sapiens, UniProt Q9UQL6); assay: HDAC enzyme activity test, HDAC5; assay type: biochemical; settings: Table 11, eleven HDAC isozymes; read-out: Inhibition ability (IC50) against HDAC5
Chain of HDAC5 (Q9UQL6 whole entry, species assumed): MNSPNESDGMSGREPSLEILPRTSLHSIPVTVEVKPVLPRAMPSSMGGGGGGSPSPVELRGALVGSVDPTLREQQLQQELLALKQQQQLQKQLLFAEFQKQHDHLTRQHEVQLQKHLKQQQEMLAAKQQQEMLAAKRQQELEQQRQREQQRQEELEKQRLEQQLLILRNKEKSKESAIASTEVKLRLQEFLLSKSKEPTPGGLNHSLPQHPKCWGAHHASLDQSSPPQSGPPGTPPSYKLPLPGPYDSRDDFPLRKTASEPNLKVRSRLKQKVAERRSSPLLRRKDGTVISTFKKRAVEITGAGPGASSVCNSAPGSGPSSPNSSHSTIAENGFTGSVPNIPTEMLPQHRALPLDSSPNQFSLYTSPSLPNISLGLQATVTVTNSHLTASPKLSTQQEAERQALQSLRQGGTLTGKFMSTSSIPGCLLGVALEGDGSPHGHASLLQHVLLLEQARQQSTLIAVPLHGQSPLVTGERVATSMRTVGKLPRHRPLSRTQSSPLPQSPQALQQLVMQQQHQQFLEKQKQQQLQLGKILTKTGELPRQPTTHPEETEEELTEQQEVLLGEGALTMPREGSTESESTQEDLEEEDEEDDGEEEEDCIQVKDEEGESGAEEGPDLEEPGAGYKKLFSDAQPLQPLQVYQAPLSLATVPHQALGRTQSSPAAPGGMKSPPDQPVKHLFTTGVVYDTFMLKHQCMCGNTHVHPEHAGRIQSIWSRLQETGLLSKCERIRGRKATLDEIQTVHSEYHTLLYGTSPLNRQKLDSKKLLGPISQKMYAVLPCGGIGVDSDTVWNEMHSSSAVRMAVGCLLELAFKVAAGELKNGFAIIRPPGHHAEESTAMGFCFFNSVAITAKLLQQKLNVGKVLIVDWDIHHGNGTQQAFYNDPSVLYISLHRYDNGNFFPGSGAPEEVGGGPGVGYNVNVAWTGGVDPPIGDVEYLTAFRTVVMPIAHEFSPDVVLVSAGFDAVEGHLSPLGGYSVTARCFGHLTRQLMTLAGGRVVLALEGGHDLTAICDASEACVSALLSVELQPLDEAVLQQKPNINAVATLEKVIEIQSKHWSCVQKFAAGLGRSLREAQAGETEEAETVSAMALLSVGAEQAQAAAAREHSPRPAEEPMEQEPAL
Experimental: as §1

[4] = target: T2, HDAC7 (Homo sapiens, UniProt Q8WUI4); assay: HDAC enzyme activity test, HDAC7; assay type: biochemical
T2 sequence (Q8WUI4 1-952): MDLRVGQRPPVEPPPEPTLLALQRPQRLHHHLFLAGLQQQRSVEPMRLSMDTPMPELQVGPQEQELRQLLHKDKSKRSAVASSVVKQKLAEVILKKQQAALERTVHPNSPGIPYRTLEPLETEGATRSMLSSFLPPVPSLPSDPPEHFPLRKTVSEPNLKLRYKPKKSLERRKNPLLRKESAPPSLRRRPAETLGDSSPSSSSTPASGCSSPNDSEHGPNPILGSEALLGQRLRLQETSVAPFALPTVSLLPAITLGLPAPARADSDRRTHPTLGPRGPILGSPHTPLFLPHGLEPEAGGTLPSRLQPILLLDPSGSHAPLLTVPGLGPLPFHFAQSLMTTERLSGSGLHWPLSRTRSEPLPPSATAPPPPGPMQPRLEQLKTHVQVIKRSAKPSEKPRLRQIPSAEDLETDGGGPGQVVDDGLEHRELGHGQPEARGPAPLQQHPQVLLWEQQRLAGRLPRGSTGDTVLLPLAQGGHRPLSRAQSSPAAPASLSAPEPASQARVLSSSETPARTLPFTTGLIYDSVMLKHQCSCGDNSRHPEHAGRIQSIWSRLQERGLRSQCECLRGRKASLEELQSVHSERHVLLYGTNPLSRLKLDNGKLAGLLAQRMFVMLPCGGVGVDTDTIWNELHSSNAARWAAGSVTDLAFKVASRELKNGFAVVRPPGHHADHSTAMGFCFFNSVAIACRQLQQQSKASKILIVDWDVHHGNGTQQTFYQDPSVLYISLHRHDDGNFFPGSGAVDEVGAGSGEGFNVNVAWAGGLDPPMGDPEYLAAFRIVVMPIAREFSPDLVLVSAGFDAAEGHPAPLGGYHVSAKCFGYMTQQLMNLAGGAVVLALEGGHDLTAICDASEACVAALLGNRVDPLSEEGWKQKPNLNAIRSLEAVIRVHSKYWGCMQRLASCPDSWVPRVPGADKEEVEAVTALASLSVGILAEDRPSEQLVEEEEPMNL
Experimental: as §1

[5] = target: HDAC9 (Homo sapiens, UniProt Q9UKV0); assay: HDAC enzyme activity test, HDAC9; assay type: biochemical; settings: Table 11, eleven HDAC isozymes; read-out: Inhibition ability (IC50) against HDAC9
Chain of HDAC9 (Q9UKV0 whole entry, species assumed): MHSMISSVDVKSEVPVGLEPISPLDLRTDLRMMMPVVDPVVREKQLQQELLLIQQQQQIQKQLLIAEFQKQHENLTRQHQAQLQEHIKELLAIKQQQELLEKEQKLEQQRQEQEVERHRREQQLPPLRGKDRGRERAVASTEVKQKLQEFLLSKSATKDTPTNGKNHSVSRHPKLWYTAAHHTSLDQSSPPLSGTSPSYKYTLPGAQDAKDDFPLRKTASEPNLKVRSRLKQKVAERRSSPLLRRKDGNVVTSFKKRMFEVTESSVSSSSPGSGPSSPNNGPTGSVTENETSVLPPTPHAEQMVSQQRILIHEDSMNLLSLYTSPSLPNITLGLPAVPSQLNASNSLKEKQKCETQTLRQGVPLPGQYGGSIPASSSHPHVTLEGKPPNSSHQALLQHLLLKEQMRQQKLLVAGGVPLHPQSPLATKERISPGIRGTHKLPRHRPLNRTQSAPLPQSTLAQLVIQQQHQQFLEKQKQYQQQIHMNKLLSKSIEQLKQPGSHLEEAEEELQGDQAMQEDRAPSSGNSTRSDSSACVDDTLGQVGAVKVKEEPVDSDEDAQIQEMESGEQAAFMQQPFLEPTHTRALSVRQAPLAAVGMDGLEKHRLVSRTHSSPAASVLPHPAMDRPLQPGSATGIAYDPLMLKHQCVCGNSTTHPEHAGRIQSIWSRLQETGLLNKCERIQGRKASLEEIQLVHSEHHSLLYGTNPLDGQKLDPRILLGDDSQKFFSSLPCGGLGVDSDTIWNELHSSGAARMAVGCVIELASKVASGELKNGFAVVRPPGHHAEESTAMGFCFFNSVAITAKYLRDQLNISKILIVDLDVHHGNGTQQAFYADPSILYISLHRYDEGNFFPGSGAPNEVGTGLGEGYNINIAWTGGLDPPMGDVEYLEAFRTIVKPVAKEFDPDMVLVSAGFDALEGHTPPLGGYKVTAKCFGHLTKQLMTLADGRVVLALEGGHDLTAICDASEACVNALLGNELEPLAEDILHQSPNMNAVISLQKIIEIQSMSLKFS
Experimental: as §1

[6] = target: T3, HDAC11 (Homo sapiens, UniProt Q96DB2); assay: HDAC enzyme activity test, HDAC11; assay type: biochemical; settings: Table 11, eleven HDAC isozymes; read-out: Inhibition ability (IC50) against HDAC11
T3 sequence (Q96DB2 1-347): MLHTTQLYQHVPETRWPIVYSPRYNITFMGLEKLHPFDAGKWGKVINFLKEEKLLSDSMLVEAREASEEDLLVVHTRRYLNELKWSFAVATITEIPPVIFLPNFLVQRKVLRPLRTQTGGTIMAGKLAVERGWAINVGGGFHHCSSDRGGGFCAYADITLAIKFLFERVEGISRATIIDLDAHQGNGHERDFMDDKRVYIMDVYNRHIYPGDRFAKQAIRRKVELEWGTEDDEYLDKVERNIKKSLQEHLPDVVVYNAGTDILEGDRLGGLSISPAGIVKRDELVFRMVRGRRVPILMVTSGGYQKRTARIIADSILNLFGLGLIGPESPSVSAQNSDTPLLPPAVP
Experimental: as §1

[7] = test system: collagen-induced arthritis model; assay: Effectiveness of compound 237 in a collagen-induced arthritis model; assay type: in vivo
Source text: 6-week aged male DBA1J mice were used in the experiment. The animal facility was kept at constant temperature and constant humidity with a 12-hr dark/12-hr light cycle, and the animals were allowed to access food and water ad libitum. The animals were acclimated to the cage for 7 days.
Each arthritis-onset animals were selected and then promptly used in the experiments. The experimental animal groups consist of • A. a vehicle-control group administered with only vehicle once a day via s.c. (subcutaneous injection), • B. a compound test group administered with compound 237 in dose of 15 mg/kg q.d. (once a day) via s.c., • C. a compound test group administered with compound 237 in dose of 15 mg/kg b.i.d. (twice a day) via s.c., and • D. a compound test group administered with compound 237 in dose of 30 mg/kg q.d. via s.c.
A solution of compound 237 for administration was prepared using Cremophore EL:Ethanol:Saline=1.5:1.5:7 as a vehicle just before administration. It was administered in a volume of 5 ml/kg via s.c. with each doses of 15 and 30 mg/kg once or twice a day.
Bovine type 2 collagen (Chondrex) and complete Freund's adjuvant (Chondrex) are mixed in 1:1 to become an emulsion. Each 0.1 ml of the obtained emulsion was injected to the tail of each mouse intradermally for immunization. After 21 days, Bovine type 2 collagen (Chondrex) and incomplete Freund's adjuvant (Chondrex) are mixed in 1:1 to become an emulsion. Each 0.1 ml of the obtained emulsion was injected to the hips of each mouse intradermally for boosting. After boosting, the mice were divided in each groups, and administered with compound 237 or only vehicle according to the administration schedule. Their body weights and clinical scores were evaluated three times per week.
From each four feet of a mouse, the clinical scores were evaluated according to the following criterion and added together thereby to determine the clinical score of the mouse (normal, 0; and the most severe edema, 16).
All the results were expressed as mean±SEM, and the experimented groups were compared with each other using one-way ANOVA test (Dunnett's test, p<0.001).

[8] = Table 11, eleven HDAC isozymes, read-out: Inhibition ability (IC50) against HDAC1
[9] = Table 12, read-out: Inhibition ability (IC50) HDAC1

Structure (SMILES) | IC50 [1, 8] | IC50 [2] | IC50 [3] | IC50 ([4]; Table 11, eleven HDAC isozymes, read-out: Inhibition ability (IC50) against HDAC7) | IC50 [5] | IC50 [6] | IC50 [1, 9] | IC50 ([1]; data of Table 11, read-out: IC50 against HDAC1) | IC50 [4] | clinical score decreased, compared with the control group (only vehicle) ([7]; 15 mpk b.i.d. s.c.) | clinical score decreased, compared with the control group (only vehicle) ([7]; 15 mpk q.d. s.c.) | clinical score decreased, compared with the control group (only vehicle) ([7]; 30 mpk q.d. s.c.) | body-weight loss or toxic side effect ([7]; during the administration of drug, 15 and 30 mg/kg s.c.)
CN1CCN(C(=O)N(CCCCCCC(=O)NO)c2ccc(-c3ccc4cnn(C)c4c3)cc2)CC1 [CKD-581, reference compound] | 0.000673 µM | 1.58 nM | 0.00109 µM | 0.0106 µM | 0.42 nM | 0.00152 µM | – | – | – | – | – | – | –
O=C(NO)c1ccc(Cn2c3c(c4ccccc42)C(=O)C(CN2CCOCC2)CC3)cc1 (centres unmarked) [Compound 87, N-hydroxy-4-((3-(morpholinomethyl)-4-oxo-1,2,3,4-tetrahydrocarbazol-9-yl)methyl)benzamide] | – | – | 5.08 µM | – | 1750 nM | 37.5 µM | 3.07 µM | 11.2 µM | 3.28 µM | – | – | – | –
CN1CCN(CC2CCc3c(c4cc(F)ccc4n3Cc3ccc(C(=O)NO)cc3)C2=O)CC1 (centres unmarked) [Compound 142, 4-((6-fluoro-3-((4-methylpiperazin-1-yl)methyl)-4-oxo-1,2,3,4-tetrahydrocarbazol-9-yl)methyl)-N-hydroxybenzamide] | 12.2 µM | – | 4.27 µM | – | 1880 nM | 11.1 µM | 2.65 µM | – | 4.53 µM | – | – | – | –
CC1(C)CC(=O)c2c(C(F)(F)F)nn(Cc3ccc(C(=O)NO)cc3)c2C1 [Compound 237, 4-((6,6-dimethyl-4-oxo-3-(trifluoromethyl)-4,5,6,7-tetrahydro-1H-indazol-1-yl)methyl)-N-hydroxybenzamide] | – | – | 16 µM | – | 16900 nM | 33.9 µM | 3.91 µM | – | – | 53% | 7% | 65% | body-weight loss or toxic side effect was not observed
O=C(NO)c1ccc(Cn2c3c(c4ccccc42)C(=O)N(CCN2CCOCC2)CC3)cc1 [Compound 249, N-hydroxy-4-((2-(2-morpholinoethyl)-1-oxo-1,2,3,4-tetrahydropyrido[4,3-b]indol-5-yl)methyl)benzamide] | 8.47 µM | – | 4.62 µM | – | 1030 nM | 5.53 µM | 3.46 µM | – | 3.42 µM | – | – | – | –
